Measurements taken from ChEMBL document CHEMBL4414648, “Novel Benzohydroxamate-Based Potent and Selective Histone Deacetylase 6 (HDAC6) Inhibitors Bearing a Pentaheterocyclic Scaffold: Design, Synthesis, and Biological Evaluation” (J Med Chem, 2019).

How the values were obtained:
[1] = test system: Histone deacetylase; test: Inhibition of HDAC in human 697 cells assessed as increase in H3 acetylation at 1000 nM incubated for 16 hrs by ELISA; assay type: cell-based; conditions: human, 697, 16 h, 1 µM
[2] = Selectivity ratio of IC50 for C-terminal GST-tagged human HDAC5 to IC50 for human N-terminal GST-tagged HDAC6 expressed in baculovirus infected sf9 insect cells
[3] = Selectivity ratio of IC50 for N-terminal GST-tagged human HDAC7 (518 to end residues) expressed in baculovirus infected sf9 insect cells to IC50 for human N-terminal GST-tagged HDAC6 expressed in baculovirus infected sf9 insect cells
[4] = Selectivity ratio of IC50 for C-terminal His-tagged human HDAC8 expressed in baculovirus infected sf9 insect cells to IC50 for human N-terminal GST-tagged HDAC6 expressed in baculovirus infected sf9 insect cells
[5] = Selectivity ratio of IC50 for human HDAC4 expressed in baculovirus infected sf9 insect cells to IC50 for human N-terminal GST-tagged HDAC6 expressed in baculovirus infected sf9 insect cells
[6] = Stability in human liver S9 fraction assessed as parent compound remaining at 5 uM after 90 mins in presence of NADPH by LC-MS/MS analysis; assay type: ADME, subcellular; conditions: read-out: Stability
[7] = Stability in rat plasma assessed as parent compound remaining at 100 uM after 4 hrs by LC-MS/MS analysis; assay type: ADME, cell-free; conditions: read-out: Stability
[8] = Stability in human plasma assessed as parent compound remaining at 100 uM after 4 hrs by LC-MS/MS analysis; assay type: ADME, cell-free; conditions: read-out: Stability
[9] = Stability in rat liver S9 fraction assessed as parent compound remaining at 5 uM after 90 mins in presence of NADPH by LC-MS/MS analysis; assay type: ADME, subcellular; conditions: read-out: Stability
[10] = Selectivity ratio of IC50 for C-terminal His-tagged human HDAC9 (604 to 1066 residues) expressed in baculovirus infected sf9 insect cells to IC50 for human N-terminal GST-tagged HDAC6 expressed in baculovirus infected sf9 insect cells
[11] = Selectivity ratio of IC50 for N-terminal Flag-tagged human HDAC10 (2 to 631 residues) expressed in baculovirus infected sf9 insect cells to IC50 for human N-terminal GST-tagged HDAC6 expressed in baculovirus infected sf9 insect cells
[12] = Selectivity ratio of IC50 for N-terminal His-tagged human HDAC11 expressed in baculovirus expression system to IC50 for human N-terminal GST-tagged HDAC6 expressed in baculovirus infected sf9 insect cells
[13] = test system: 697; test: Cytotoxicity against human 697 cells after 48 hrs by CellTiter 96 aqueous one solution assay; assay type: cell-based; conditions: Homo sapiens, 697, 48 h
[14] = test system: PBMC; test: Cytotoxicity against human PBMC cells after 72 hrs by CellTiter 96 aqueous one solution assay; assay type: cell-based
[15] = molecular target: T1, Protein deacetylase HDAC6 (Homo sapiens, UniProt Q9UBN7); test: biochemical
T1 sequence (Q9UBN7 whole entry): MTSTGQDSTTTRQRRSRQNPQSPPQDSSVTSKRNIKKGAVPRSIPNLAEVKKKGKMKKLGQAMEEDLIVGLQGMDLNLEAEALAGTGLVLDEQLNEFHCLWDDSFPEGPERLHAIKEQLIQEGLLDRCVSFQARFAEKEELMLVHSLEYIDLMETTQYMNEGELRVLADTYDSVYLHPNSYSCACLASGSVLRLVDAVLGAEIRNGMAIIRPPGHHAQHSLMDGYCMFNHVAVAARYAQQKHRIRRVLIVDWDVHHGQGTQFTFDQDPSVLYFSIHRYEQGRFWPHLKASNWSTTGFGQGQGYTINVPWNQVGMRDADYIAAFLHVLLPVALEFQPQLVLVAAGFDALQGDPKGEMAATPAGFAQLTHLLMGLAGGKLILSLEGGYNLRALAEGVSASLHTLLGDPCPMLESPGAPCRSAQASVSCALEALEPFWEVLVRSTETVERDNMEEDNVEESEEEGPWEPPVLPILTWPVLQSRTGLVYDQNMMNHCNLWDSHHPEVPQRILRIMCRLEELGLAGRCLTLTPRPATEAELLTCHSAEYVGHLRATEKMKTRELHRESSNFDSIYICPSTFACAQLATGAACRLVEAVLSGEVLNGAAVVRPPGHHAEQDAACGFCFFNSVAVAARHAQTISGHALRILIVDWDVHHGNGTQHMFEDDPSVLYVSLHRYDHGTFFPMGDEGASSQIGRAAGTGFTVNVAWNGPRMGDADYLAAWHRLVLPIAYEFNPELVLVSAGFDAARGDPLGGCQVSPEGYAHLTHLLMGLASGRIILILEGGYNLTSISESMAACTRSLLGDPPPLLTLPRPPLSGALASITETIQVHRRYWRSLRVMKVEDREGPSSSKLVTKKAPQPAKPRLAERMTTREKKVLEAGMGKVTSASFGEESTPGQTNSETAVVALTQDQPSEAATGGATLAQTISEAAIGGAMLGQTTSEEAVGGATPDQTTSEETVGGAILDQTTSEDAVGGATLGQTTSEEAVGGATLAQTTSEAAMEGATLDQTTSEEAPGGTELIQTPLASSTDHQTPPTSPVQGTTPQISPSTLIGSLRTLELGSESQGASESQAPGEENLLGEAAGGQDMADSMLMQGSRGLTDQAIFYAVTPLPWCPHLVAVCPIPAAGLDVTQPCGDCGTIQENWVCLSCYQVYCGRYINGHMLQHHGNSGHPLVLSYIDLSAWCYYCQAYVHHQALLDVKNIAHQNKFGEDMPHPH

[16] = molecular target: Histone deacetylase 3/Nuclear receptor corepressor 2 (HDAC3/NCoR2) (Homo sapiens, UniProt O15379); test: Inhibition of C-terminal His-tagged human HDAC3 (1 to 428 residues)/N-terminal GST tagged human NCOR2 (395 to 489) expressed in baculovirus infected sf9 insect cells pretreated with compound followed by Fluor de Lys deacetylase substrate addition by fluorescence method
Histone deacetylase 3/Nuclear receptor corepressor 2 (HDAC3/NCoR2), sequence (O15379 whole entry, the tested form may be a part): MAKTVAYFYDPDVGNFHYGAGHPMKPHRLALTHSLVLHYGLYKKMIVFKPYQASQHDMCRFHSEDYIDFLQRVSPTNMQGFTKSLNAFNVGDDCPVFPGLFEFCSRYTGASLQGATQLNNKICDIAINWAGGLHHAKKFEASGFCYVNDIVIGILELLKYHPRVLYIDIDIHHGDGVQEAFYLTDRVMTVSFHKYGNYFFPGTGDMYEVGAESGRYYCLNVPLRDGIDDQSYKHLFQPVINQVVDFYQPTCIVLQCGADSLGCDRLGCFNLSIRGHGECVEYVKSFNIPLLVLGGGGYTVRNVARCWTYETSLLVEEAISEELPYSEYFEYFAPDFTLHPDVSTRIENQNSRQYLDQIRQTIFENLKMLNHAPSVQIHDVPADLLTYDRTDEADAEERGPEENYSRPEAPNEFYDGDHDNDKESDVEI
Histone deacetylase 3/Nuclear receptor corepressor 2 (HDAC3/NCoR2), sequence (Q9Y618 whole entry, further chain, the tested form may be a part): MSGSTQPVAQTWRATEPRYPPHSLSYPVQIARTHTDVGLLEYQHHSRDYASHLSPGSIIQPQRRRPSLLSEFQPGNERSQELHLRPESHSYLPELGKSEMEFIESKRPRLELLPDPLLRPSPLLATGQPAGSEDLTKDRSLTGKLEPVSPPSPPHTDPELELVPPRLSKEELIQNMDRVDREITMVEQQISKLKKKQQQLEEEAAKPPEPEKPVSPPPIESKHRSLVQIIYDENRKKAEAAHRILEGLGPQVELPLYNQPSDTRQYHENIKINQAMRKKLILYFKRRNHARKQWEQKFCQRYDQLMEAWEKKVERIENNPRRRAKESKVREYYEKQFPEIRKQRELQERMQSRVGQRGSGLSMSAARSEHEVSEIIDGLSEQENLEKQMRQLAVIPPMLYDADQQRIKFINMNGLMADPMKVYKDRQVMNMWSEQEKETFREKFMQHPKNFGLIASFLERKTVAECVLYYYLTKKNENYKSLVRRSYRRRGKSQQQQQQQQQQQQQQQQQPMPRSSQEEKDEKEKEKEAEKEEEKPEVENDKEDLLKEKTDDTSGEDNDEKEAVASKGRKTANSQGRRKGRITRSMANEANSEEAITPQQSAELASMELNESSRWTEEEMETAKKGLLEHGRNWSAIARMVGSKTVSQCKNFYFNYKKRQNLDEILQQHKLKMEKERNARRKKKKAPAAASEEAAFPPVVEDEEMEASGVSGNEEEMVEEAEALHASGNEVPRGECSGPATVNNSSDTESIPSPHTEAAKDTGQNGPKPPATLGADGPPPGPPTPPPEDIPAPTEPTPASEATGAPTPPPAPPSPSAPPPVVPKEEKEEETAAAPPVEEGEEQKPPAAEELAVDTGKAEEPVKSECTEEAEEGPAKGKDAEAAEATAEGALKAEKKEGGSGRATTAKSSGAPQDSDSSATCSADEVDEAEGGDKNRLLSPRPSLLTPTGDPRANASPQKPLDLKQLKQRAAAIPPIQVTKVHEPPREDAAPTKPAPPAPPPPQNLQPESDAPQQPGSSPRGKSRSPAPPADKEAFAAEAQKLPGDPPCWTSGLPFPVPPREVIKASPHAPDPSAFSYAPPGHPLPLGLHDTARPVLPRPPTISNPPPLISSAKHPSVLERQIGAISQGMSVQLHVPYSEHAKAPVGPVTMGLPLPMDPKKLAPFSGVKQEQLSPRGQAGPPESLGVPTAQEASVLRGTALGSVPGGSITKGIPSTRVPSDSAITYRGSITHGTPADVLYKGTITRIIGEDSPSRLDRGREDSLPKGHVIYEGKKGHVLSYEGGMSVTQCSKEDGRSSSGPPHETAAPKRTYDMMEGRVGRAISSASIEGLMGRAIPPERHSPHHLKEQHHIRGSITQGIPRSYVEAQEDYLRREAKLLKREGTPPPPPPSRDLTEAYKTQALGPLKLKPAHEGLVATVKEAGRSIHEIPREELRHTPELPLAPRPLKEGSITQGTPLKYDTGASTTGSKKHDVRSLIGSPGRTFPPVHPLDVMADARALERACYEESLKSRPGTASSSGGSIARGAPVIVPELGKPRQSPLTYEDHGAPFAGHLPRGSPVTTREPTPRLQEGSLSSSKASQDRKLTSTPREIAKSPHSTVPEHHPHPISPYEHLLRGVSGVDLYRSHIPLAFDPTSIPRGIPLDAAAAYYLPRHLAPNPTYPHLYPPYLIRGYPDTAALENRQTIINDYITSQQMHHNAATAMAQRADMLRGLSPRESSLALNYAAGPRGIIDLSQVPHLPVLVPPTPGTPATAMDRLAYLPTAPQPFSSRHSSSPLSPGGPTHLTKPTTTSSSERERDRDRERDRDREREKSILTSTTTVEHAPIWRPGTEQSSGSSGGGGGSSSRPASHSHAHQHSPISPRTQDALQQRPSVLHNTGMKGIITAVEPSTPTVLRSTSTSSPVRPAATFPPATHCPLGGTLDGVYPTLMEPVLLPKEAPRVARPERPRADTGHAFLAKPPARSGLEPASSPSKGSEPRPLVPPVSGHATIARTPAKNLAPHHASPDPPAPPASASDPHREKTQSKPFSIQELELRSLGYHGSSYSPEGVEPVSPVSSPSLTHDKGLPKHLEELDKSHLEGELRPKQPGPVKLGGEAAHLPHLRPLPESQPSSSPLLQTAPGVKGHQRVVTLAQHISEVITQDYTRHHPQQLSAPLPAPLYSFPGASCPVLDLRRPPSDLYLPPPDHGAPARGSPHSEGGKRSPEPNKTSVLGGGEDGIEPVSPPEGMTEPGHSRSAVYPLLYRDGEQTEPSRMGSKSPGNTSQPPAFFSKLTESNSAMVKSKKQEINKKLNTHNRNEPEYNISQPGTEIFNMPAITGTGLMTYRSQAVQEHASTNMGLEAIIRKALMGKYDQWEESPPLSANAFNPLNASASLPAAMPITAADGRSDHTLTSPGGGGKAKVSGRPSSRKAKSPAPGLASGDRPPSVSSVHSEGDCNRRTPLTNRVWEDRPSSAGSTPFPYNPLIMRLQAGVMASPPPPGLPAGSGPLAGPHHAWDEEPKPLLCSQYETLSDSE

inhibition (INH) [1]	remaining at […], 5 µM [6]	remaining at 4 h, 100 µM [7]	remaining at 4 h, 100 µM [8]	remaining at […], 5 µM [9]	IC50 [15]	IC50 [16]	Structure (SMILES)	Ratio IC50 [2]	Ratio IC50 [3]	Ratio IC50 [4]	Ratio IC50 [5]	Ratio IC50 [10]	Ratio IC50 [11]	Ratio IC50 [12]	IC50 [13]	IC50 [14]
Active	74%	77%	88%	48%	0.003 µM		Nc1ccc(-c2nnn(Cc3c(F)cc(C(=O)NO)cc3F)n2)cc1	144	325	230	162	118	138	86	> 1 µM	> 1 µM
						5 µM	NCc1ccc(C(=O)NO)cc1									
